{
  "source": "patent US10550094B2",
  "about": "“Compounds having antioxidant activity against free radicals and anti-inflammatory activity, and corresponding pharmaceutical or cosmetic compositions for skin care” (GIULIANI S.P.A., priority 2015, dated 2020)",
  "assay": "HORAC Hydroxyl radical antioxidant capacity assay",
  "excerpt": "HORAC Assay: Hydroxyl Antioxidant Capacity In Vitro\nThe commercial kit “Oxiselect Hydroxyl Radical Antioxidant Capacity (HORAC) activity assay” (Cell Biolabs).\nThe HORAC assay esxpresses the compound antiradical capacity towards the hydroxyl radical OH′ and is based on the oxidation of a fluorescent probe by hydroxyl radicals through a hydrogen transfer process (HAT). Hydroxyl radicals are produced by a radical initiator hydroxyl and by Fenton's reagent, which quenches the fluorescent probe over time. The antioxidants present in the sample block the oxidation by the hydroxyl radical of the fluorescent probe until the antioxidant activity in the sample runs out. The remaining hydroxyl radicals destroy the fluorescence of the fluorescent probe. The antioxidant capacity of the sample is related to the fluorescence decay curve, which usually is represented as the area under the curve (AUC). The AUC is used to quantify the total antioxidant activity of the hydroxyl radical in a sample and is compared to the curve of an antioxidant standard.\nThe compounds of the invention were tested at the following concentrations: 13.5 μM; 27 μM, 13.5 mM; 27 mM.\nFor comparison purposes, also samples of the compound monofurfurylidene-2.4-sorbitol defined below by the acronym ARGB11, were in this case tested under the same two concentrations, as a reference compound according to EP0345362 mentioned above as the background art of substances with free radical inhibition activity.",
  "data": [
    {"smiles": "OC[C@@H](O)[C@H]1OC(c2ccco2)O[C@@H](CO)[C@H]1O", "note": "(stereo partly shown) [ARGB11, monofurfurylidene-2.4-sorbitol, reference compound]", "values": [
      {"measurement": "HORAC (Hydroxyl Radical Antioxidant Capacity)", "setting": "13.5 μM", "value": 31.04, "unit": "μMole GAE/L"},
      {"measurement": "HORAC (Hydroxyl Radical Antioxidant Capacity)", "setting": "27 μM", "value": 40.110, "unit": "μMole GAE/L"},
      {"measurement": "HORAC (Hydroxyl Radical Antioxidant Capacity)", "setting": "13.5 mM", "value": 308.497, "unit": "μMole GAE/L"},
      {"measurement": "HORAC (Hydroxyl Radical Antioxidant Capacity)", "setting": "27 mM", "value": 408.795, "unit": "μMole GAE/L"}
    ]}
  ]
}
